Reference: patent publication US8895585B2, “Nicotinamide derivative or salt thereof” (FUJIFILM Corporation, priority 2010, dated 2014)
pIC50: −log10 of the molar value. Read-outs that look alike come from different tables or passages of the source.

What was measured:
[1] = target: T1, glutathione S-transferase (GST)-fused full-length human Syk protein (Homo sapiens, UniProt P43405); test: Syk enzyme assay; type: biochemical
T1 construct: (GST)-fused full-length human Syk protein; GST (glutathione S-transferase); purchased Carna Biosciences
Summary of the method: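 IC50 values come from a time-resolved FRET readout (615 and 665 nm) of substrate phosphorylation, measured after an EDTA stop and 1 h antibody binding. The kinase reaction ran 40 min at room temperature with 27 μM ATP and 0.4 μM biotin-peptide, following a 15 min compound preincubation with baculovirus-made GST-full-length human Syk.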

[2] = system: THP-1 cells; test: TNFα generation assay; type: cell-based, human; conditions: Homo sapiens
Summary of the method: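 THP-1 cells differentiated to macrophage-like cells with 10 ng/ml IFN-γ for 2 days, preincubated with compound 30 min at room temperature, then cultured 7 h on plates coated with human IgG (10 μg/ml). Secreted TNFα measured by ELISA or AlphaLISA.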

[3] = Syk enzyme assay, Test Example 1, read-out: IC50 of Syk-inhibitory activity
[4] = THP-1, THP-1 cells, Table 22, read-out: IC50 in TNFα generation assay

| Compound | pIC50 [1, 3] | pIC50 [2, 4] | pIC50 ([1]; read-out: Syk-inhibitory activity (IC50)) | pIC50 ([2]; THP-1, 7 h, IFN-γ-differentiated THP-1 cells on human IgG-coated plate, cultured 7 hours, read-out: TNFα generation inhibitory activity (IC50)) |
| --- | --- | --- | --- | --- |
| NC(=O)c1cc(F)c(N[C@@H]2CCCC[C@@H]2N)nc1Nc1ccnc(-n2cccn2)c1 (relative stereo) [Example 006-130, 2-((2-(1H-pyrazol-1-yl)pyridin-4-yl)amino)-6-((cis-2-aminocyclohexyl)amino)-5-fluoronicotinamide] | 7.30 to 8.00 | 6.89 to 7.19 | – | – |
| COc1cc(Nc2nc(N[C@@H]3CCCC[C@@H]3N)c(F)cc2C(N)=O)cc(OC)c1 (single isomer, unassigned) [Example 21, 6-(cis-2-aminocyclohexylamino)-2-(3,5-dimethoxyphenylamino)-5-fluoronicotinamide] | – | – | ≥ 6.00 | ≥ 6.70 |
| Cc1cc(Nc2nc(N[C@@H]3CCCC[C@@H]3N)c(F)cc2C(N)=O)cnc1C1CC1 [Example 006-503, 6-(((1R,2S)-2-aminocyclohexyl)amino)-2-((6-cyclopropyl-5-methylpyridin-3-yl)amino)-5-fluoronicotinamide] | > 8.00 | 6.89 to 7.19 | – | – |
| NC(=O)c1cc(F)c(N[C@@H]2CCCC[C@@H]2N)nc1Nc1cncc(C2CC2)c1 (relative stereo) [Example 004-055] | > 8.00 | 6.89 to 7.19 | – | – |
| NC(=O)c1cc(F)c(N[C@@H]2CCCC[C@@H]2N)nc1Nc1cncc(-n2cccc2)c1 (relative stereo) [Example 006-123, 2-((5-(1H-pyrrol-1-yl)pyridin-3-yl)amino)-6-(cis-2-aminocyclohexylamino)-5-fluoronicotinamide] | > 8.00 | 6.70 to 6.89 | – | – |
| NC(=O)c1cc(F)c(N[C@@H]2CCCC[C@@H]2N)nc1Nc1cnc(-n2cccn2)c(Cl)c1 [Example 006-446, 6-(((1R,2S)-2-aminocyclohexyl)amino)-2-((5-chloro-6-(1H-pyrazol-1-yl)pyridin-3-yl)amino)-5-fluoronicotinamide] | 7.30 to 8.00 | 6.70 to 6.89 | – | – |
| NC(=O)c1cc(F)c(NC[C@@H](N)c2ccsc2)nc1Nc1ccc2ncccc2c1 [Example 014-019, (S)-6-((2-amino-2-(thiophene-3-yl)ethyl)-amino)-5-fluoro-2-((quinolin-6-yl)amino)-nicotinamide] | > 8.00 | 6.89 to 7.19 | – | – |
| CC(=O)c1cncc(Nc2nc(N[C@@H]3CCCC[C@@H]3N)c(F)cc2C(N)=O)c1 (relative stereo) [Example 004-132, 2-((5-acetylpyridin-3-yl)amino)-6-(cis-2-aminocyclohexylamino)-5-fluoronicotinamide] | 7.30 to 8.00 | 6.89 to 7.19 | – | – |
| CCOCCOCCOc1ccc2cc(Nc3nc(NC4CCCCC4N)c(F)cc3C(N)=O)ccc2n1 (stereo not shown) [Example 002-100] | > 8.00 | 6.70 to 6.89 | – | – |
| CNc1cccc(-c2cncc(Nc3nc(N[C@@H]4CCCC[C@@H]4N)c(F)cc3C(N)=O)c2)c1 (relative stereo) [Example 004-219, 6-(cis-2-aminocyclohexylamino)-5-fluoro-2-((5-(3-(methylamino)phenyl)pyridin-3-yl)amino)nicotinamide] | > 8.00 | 6.89 to 7.19 | – | – |
| COc1ccc2ncc(Nc3nc(N[C@@H](CN)CC(C)C)c(F)cc3C(N)=O)cc2c1 [Example 006-232, (R)-6-((1-amino-4-methylpentan-2-yl)amino)-5-fluoro-2-((6-methoxyquinolin-3-yl)amino)nicotinamide] | > 8.00 | 6.70 to 6.89 | – | – |
| CCNc1cc(Nc2nc(NC3CCCCC3N)c(F)cc2C(N)=O)ccn1 (stereo not shown) [Example 002-059] | 7.30 to 8.00 | 6.70 to 6.89 | – | – |
| COc1ccc(-c2cncc(Nc3nc(N[C@@H](CN)CC(C)C)c(F)cc3C(N)=O)c2)cc1 [Example 006-291, (R)-6-((1-amino-4-methylpentan-2-yl)amino)-5-fluoro-2-((5-(4-methoxyphenyl)pyridin-3-yl)amino)nicotinamide] | 7.30 to 8.00 | 6.70 to 6.89 | – | – |
| NC(=O)c1cc(F)c(N[C@@H]2CCCC[C@@H]2N)nc1Nc1cncc(-n2cccn2)c1 (relative stereo) [Example 006-129, 2-((5-(1H-pyrazol-1-yl)pyridin-3-yl)amino)-6-((cis-2-aminocyclohexyl)amino)-5-fluoronicotinamide] | > 8.00 | > 7.19 | – | – |
| NC(=O)c1cc(F)c(NC2CCCCC2N)nc1Nc1cncc(-c2ccc3c(c2)OCO3)c1 (stereo not shown) [Example 002-175] | > 8.00 | > 7.19 | – | – |
| COc1cc(Nc2nc(N[C@H](CC(C)C)[C@H](C)N)c(F)cc2C(N)=O)ccn1 [Example 006-410, 6-(((2S,3R)-2-amino-5-methylhexan-3-yl)amino)-5-fluoro-2-((2-methoxypyridin-4-yl)amino)nicotinamide] | > 8.00 | 6.89 to 7.19 | – | – |

| Compound | pIC50 [1, 3] | pIC50 [2, 4] | pIC50 ([1]; read-out: Syk-inhibitory activity (IC50)) | pIC50 ([2]; THP-1, 7 h, IFN-γ-differentiated THP-1 cells on human IgG-coated plate, cultured 7 hours, read-out: TNFα generation inhibitory activity (IC50)) |
| --- | --- | --- | --- | --- |
| CCC[C@@H](Nc1nc(Nc2ccnc(-c3ccco3)c2)c(C(N)=O)cc1F)[C@H](C)N [Example 006-220, 6-(((2S,3R)-2-aminohexan-3-yl)amino)-5-fluoro-2-((2-(furan-2-yl)pyridin-4-yl)amino)nicotinamide] | > 8.00 | > 7.19 | – | – |
| CC[C@@H](Nc1nc(Nc2ccnc(-c3ccc(OC)cc3F)c2)c(C(N)=O)cc1F)[C@H](C)N [Example 006-332, 6-(((2S,3R)-2-aminopentan-3-yl)amino)-5-fluoro-2-((2-(2-fluoro-4-methoxyphenyl)pyridin-4-yl)amino)nicotinamide] | > 8.00 | > 7.19 | – | – |
| CCC[C@@H](Nc1nc(Nc2ccnc(-c3ccc(OC)cc3F)c2)c(C(N)=O)cc1F)[C@H](C)N [Example 006-336, 6-(((2S,3R)-2-aminohexan-3-yl)amino)-5-fluoro-2-((2-(2-fluoro-4-methoxyphenyl)pyridin-4-yl)amino)nicotinamide] | > 8.00 | 6.70 to 6.89 | – | – |
| CCC[C@@H](Nc1nc(Nc2cnc(OC)c(-n3nccn3)c2)c(C(N)=O)cc1F)[C@H](C)N [Example 006-253, 6-(((2S,3R)-2-aminohexan-3-yl)amino)-5-fluoro-2-((6-methoxy-5-(2H-1,2,3-triazol-2-yl)pyridin-3-yl)amino)nicotinamide] | 7.30 to 8.00 | 6.70 to 6.89 | – | – |
| CC(C)C[C@H](CN)Nc1nc(Nc2cnc3c(N)cccc3c2)c(C(N)=O)cc1F [Example 004-196, (R)-6-((1-amino-4-methylpentan-2-yl)amino)-2-((8-aminoquinolin-3-yl)amino)-5-fluoronicotinamide] | > 8.00 | 6.70 to 6.89 | – | – |
| NC(=O)c1cc(F)c(NC2CCCCC2N)nc1Nc1ccnc(-c2cccc(F)c2F)c1 (stereo not shown) [Example 002-144] | > 8.00 | 6.70 to 6.89 | – | – |
| COCCOc1ncc(Nc2nc(N[C@@H]3CCCC[C@@H]3N)c(F)cc2C(N)=O)cc1-n1nccn1 [Example 006-517, 6-(((1R,2S)-2-aminocyclohexyl)amino)-5-fluoro-2-((6-(2-methoxyethoxy)-5-(2H-1,2,3-triazol-2-yl)pyridin-3-yl)amino)nicotinamide] | > 8.00 | 6.89 to 7.19 | – | – |
| Cc1nn(C)c2ccc(Nc3nc(NC4CCCCC4N)c(F)cc3C(N)=O)cc12 (stereo not shown) [Example 002-206] | > 8.00 | > 7.19 | – | – |
| NC(=O)c1cc(F)c(N[C@@H]2CCCC[C@@H]2N)nc1Nc1ccnc(-n2ccnc2)c1 (relative stereo) [Example 006-128, 2-((2-(1-imidazol-1-yl)pyridin-4-yl)amino)-6-((cis-2-aminocyclohexyl)amino)-5-fluoronicotinamide] | 7.30 to 8.00 | 6.70 to 6.89 | – | – |
| C[C@H](N)[C@@H](CC1CC1)Nc1nc(Nc2ccc3scnc3c2)c(C(N)=O)cc1F [Example 006-348, 6-(((2R,3S)-3-amino-1-cyclopropylbutan-2-yl)amino)-2-(benzo[d]thiazol-5-ylamino)-5-fluoronicotinamide] | 7.30 to 8.00 | 6.89 to 7.19 | – | – |
| COc1nn(C)c2ccc(Nc3nc(N[C@H](C4CC4)[C@H](C)N)c(F)cc3C(N)=O)cc12 [Example 006-589, 6-(((1R,2S)-2-amino-1-cyclopropylpropyl)amino)-5-fluoro-2-((3-methoxy-1-methyl-1H-indazol-5-yl)amino)nicotinamide] | > 8.00 | 6.89 to 7.19 | – | – |
| Cn1c(F)cc2cc(Nc3nc(N[C@@H]4CCCC[C@@H]4N)c(F)cc3C(N)=O)ccc21 (relative stereo) [Example 004-117, 6-(cis-2-aminocyclohexylamino)-5-fluoro-2-((2-fluoro-1-methyl-1H-indol-5-yl)amino)-nicotinamide] | > 8.00 | 6.70 to 6.89 | – | – |
| NC(=O)c1cc(F)c(N[C@@H]2CCCC[C@@H]2N)nc1Nc1cncc(-n2ccnn2)c1 [Example 004-043] | 6.00 to 7.00 | 6.89 to 7.19 | – | – |
| NC(=O)c1cc(F)c(N[C@@H]2CCCC[C@@H]2N)nc1Nc1cnc(C2CC2)c(F)c1 [Example 006-553, 6-(((1R,2S)-2-aminocyclohexyl)amino)-2-((6-cyclopropyl-5-fluoropyridin-3-yl)amino)-5-fluoronicotinamide] | > 8.00 | 6.70 to 6.89 | – | – |
| NC(=O)c1cc(F)c(N[C@@H]2CCCC[C@@H]2N)nc1Nc1cc(F)cc2[nH]ccc12 (relative stereo) [Example 004-082, 6-(cis-2-aminocyclohexylamino)-5-fluoro-2-((6-fluoro-1H-indol-4-yl)amino)nicotinamide] | > 8.00 | 6.70 to 6.89 | – | – |
| C[C@H](N)[C@H](Nc1nc(Nc2ccc(N3CCOCC3)nc2)c(C(N)=O)cc1F)C1CC1 [Example 006-515, 6-(((1R,2S)-2-amino-1-cyclopropylpropyl)amino)-5-fluoro-2-((6-morpholinopyridin-3-yl)amino)nicotinamide] | > 8.00 | 6.70 to 6.89 | – | – |
